What was measured:
Details in all cases: incubation time: 72 h
[1] = tested on: DU-4475; test: drug sensitivity score (DSS), CellTox Green (DSS (AUC-based score)); higher = stronger drug effect (viability inhibition or cytotoxicity); extreme values may be limits of the assay
In short: (§1)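 Normalisation on every plate relied on 0.1 % DMSO and a positive kill control. The plates, 384-well format, held compound at 5 concentrations 10-fold apart across a compound-specific 10,000-fold range, and breast cancer cell lines in 20 µl suspension were incubated on them for 72 h before CellTox Green and then CellTiter-Glo readings. The drug sensitivity score derives from the area under the fitted dose-response curve.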

[2] = tested on: CAL-120; test: as above
In short: as §1

[3] = tested on: BT-549; test: as above
In short: as §1

[4] = tested on: CAL-148; test: as above
In short: as §1

[5] = tested on: CAL-51; test: as above
In short: as §1

[6] = tested on: BT-474; test: as above
In short: as §1

[7] = tested on: MFM-223; test: as above
In short: as §1

[8] = tested on: MDA-MB-468; test: as above
In short: as §1

[9] = tested on: DU-4475; test: drug sensitivity score (DSS), CellTiter-Glo (DSS (AUC-based score)); higher = stronger drug effect (viability inhibition or cytotoxicity); extreme values may be limits of the assay
In short: as §1

[10] = tested on: HCC1143; test: as above
In short: as §1

[11] = tested on: HDQ-P1; test: as above
In short: as §1

[12] = tested on: SK-BR-3; test: as above
In short: as §1

[13] = tested on: Hs578T; test: as above
In short: as §1

[14] = tested on: MDA-MB-231; test: as above
In short: as §1

[15] = tested on: CAL-120; test: as above
In short: as §1

[16] = tested on: CAL-85-1; test: as above
In short: as §1

[17] = tested on: MDA-MB-436; test: as above
In short: as §1

[18] = tested on: HCC1937; test: as above
In short: as §1

[19] = tested on: HCC1599; test: as above
In short: as §1

[20] = tested on: BT-549; test: as above
In short: as §1

[21] = tested on: CAL-148; test: as above
In short: as §1

[22] = tested on: CAL-51; test: as above
In short: as §1

[23] = tested on: MCF-10A; test: as above
In short: as §1

[24] = tested on: BT-474; test: as above
In short: as §1

[25] = tested on: MDA-MB-453; test: as above
In short: as §1

[26] = tested on: MFM-223; test: as above
In short: as §1

[27] = tested on: MDA-MB-468; test: as above
In short: as §1

Row | SMILES | drug sensitivity score [1] | drug sensitivity score [2] | drug sensitivity score [3] | drug sensitivity score [4] | drug sensitivity score [5] | drug sensitivity score [6] | drug sensitivity score [7] | drug sensitivity score [8] | drug sensitivity score [9] | drug sensitivity score [10] | drug sensitivity score [11] | drug sensitivity score [12] | drug sensitivity score [13] | drug sensitivity score [14] | drug sensitivity score [15] | drug sensitivity score [16] | drug sensitivity score [17] | drug sensitivity score [18] | drug sensitivity score [19] | drug sensitivity score [20] | drug sensitivity score [21] | drug sensitivity score [22] | drug sensitivity score [23] | drug sensitivity score [24] | drug sensitivity score [25] | drug sensitivity score [26] | drug sensitivity score [27]
1 | CC(=O)O[C@]1(C(C)=O)CC[C@H]2[C@@H]3C=C(C)C4=CC(=O)CC[C@]4(C)[C@H]3CC[C@@]21C [Megestrol acetate] | 0 | 0 | 0 | 0 | 0 | 0 | 0 | 0 | 0 | 0 | 0 | 0 | 0 | 0 | 0 | 0 | 0 | 0 | 0 | 0 | 0 | 0 | 0 | 0 | 0 | 0 | 0
2 | S=c1[nH]cnc2nc[nH]c12 [Mercaptopurine] | 0 | 0 | 0 | 0 | 0 | 0 | 0 | 0 | 4 | 0 | 9.67 | 0 | 6.04 | 7.35 | 4.08 | 1.24 | 0.565 | 8.73 | 5.32 | 0 | 0 | 0 | 0 | 5.51 | 0 | 0 | 0
3 | Clc1ccc(C(c2ccccc2Cl)C(Cl)Cl)cc1 (stereo unspecified) [Mitotane] | 0 | 0 | 0 | 0 | 0 | 0 | 0 | 0 | 0 | 0 | 0 | 0 | 0 | 0 | 0 | 0 | 0 | 0 | 0 | 0 | 0 | 0 | 0 | 0 | 0 | 0 | 0
